Measurements taken from US20260124309A1, “STAT6 DEGRADERS AND USES THEREOF” (Kymera Therapeutics, Inc., priority 2023, published 2026).

How the values were obtained:
STAT6 = biological target: T1, STAT6 (Homo sapiens, UniProt P42226); assay: STAT6 MSD degradation in A549 cells; type: cell-based; details: 24 h
T1 construct: endogenous in cells; host or cells: A549
T1 sequence (P42226 1-847): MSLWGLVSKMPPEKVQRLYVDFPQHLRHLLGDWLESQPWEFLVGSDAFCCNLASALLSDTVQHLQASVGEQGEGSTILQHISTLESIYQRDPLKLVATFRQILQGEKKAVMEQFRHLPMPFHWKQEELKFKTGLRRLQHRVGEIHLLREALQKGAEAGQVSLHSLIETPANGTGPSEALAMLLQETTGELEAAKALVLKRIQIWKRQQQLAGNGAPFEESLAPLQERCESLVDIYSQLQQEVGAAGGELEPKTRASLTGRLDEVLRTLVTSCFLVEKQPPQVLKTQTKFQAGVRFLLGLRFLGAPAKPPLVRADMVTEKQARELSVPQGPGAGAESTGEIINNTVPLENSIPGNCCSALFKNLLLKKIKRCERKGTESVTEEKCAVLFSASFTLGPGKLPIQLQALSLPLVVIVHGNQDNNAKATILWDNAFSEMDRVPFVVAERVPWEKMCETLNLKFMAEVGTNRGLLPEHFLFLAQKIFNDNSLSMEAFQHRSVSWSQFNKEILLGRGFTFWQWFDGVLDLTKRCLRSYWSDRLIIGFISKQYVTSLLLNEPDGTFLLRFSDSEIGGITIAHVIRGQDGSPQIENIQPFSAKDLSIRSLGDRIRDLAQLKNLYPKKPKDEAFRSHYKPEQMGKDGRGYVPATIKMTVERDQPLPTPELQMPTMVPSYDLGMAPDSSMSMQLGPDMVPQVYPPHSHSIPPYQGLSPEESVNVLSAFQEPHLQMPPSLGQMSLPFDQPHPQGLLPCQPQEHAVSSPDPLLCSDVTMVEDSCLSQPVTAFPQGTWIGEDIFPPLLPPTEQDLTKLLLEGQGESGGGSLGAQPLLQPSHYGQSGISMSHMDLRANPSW
Method: Degradation of STAT6 in cells was quantitatively measured using Meso Scale Discovery (MSD) technology. A549 cells were seeded in 96-well plates with a density of 1.5×10e4 to 5×10e5 cells per well in 100 μl fresh media. Compounds were then added to the assay plates with a final top concentration of up to 10 uM in a 1:3 dilution series with total of 9 doses. The assay plates were then incubated for 4 to 24 hours at 37° C. under 5% CO2. The assay plates were then centrifuged for 5 minutes and the cell pellets were treated with 100 μl/well RIPA lysis buffer (Boston Bioproducts, BP-115D) with protease and phosphatase inhibitors (Roche, 05892791001 and 04906837001). To prepare the MSD assay plates (MSD, L15XA), the plates were coated with the capture antibody (Abnova, H00006778) in PBS, at 40 μl/well. The plates were then incubated overnight at 4° C., washed 1 time with 150 μl/well TBST buffer (Cell Signaling Technology, #9997S) and blocked with 150 μl/well blocking buffer (MSD, R93BA-4). Cell lysates were then added to MSD assay plates and the plates were incubated at room temperature for 1 hour. The plates were then washed 3 times with 150 μl/well TBST buffer and 25 μl/well primary detection antibody (Cell Signaling Technology, #5397S). The assay plates were then incubated at room temperature for 1 hour, washed 3 times with 150 μl/well TBST buffer, and 25 μl/well secondary detection antibody, SULFO-TAG anti-rabbit antibody (MSD, R32AB-1) were added. The assay plates were then incubated at room temperature for 1 hour, washed 3 times with 150 μl/well TBST buffer, and 150 μl/well MSD reading buffer (MSD, R92TC-2) were added. The plates were then analyzed by an MSD reader. The data was analyzed by GraphPad Prism and the dose dependent STAT6 degradation was fit using the four-parameter inhibitor vs. response nonlinear regression.
The letter codes for DC50 (nM) include: A (<1 nM); B (1-10 nM); C (>10-100 nM); D (>100-1000 nM); E (>1000 nM); and F (not tested). The letter codes for Dmax (oo) include: A (>90%); B (>70-90%); C (>50-70%); D ([…]); and F (not tested).

STAT6-HiBiT = biological target: T2, STAT6-HiBiT (Homo sapiens, UniProt P42226); assay: STAT6 HiBiT degradation in A549 (STAT6-HiBiT) cells; type: cell-based; details: 24 h
T2 construct: Degradation of STAT6 in endogenously tagged STAT6-HiBiT A549 cells; endogenous in cells; host or cells: A549 (STAT6-HiBiT) knock-in cells
T2 sequence (P42226 1-847): T1 sequence (P42226 1-847)
Method: Degradation of STAT6 in endogenously tagged STAT6-HiBiT A549 cells was quantitatively measured using the Nano-Glo HiBiT Lytic Detection System (Promega, 3040). A549 (STAT6-HiBiT) cells were seeded in 384-well plates with a density of 1.25k cells per well in 20 μl fresh media. Compounds were then added to the assay plates using the Apricot S3 with a final top concentration of up to 10 uM in a 4-fold dilution series with total of 10 doses. The assay plates were then incubated for 24 hours at 37° C. under 5% CO2. At the assay endpoint, 20 μL of Nano-Glo HiBiT Lytic Reagent was added to each well and agitated on a plate shaker at 300 rpm for 10 minutes at room temperature. Luminescence was read on PHERAStar FSX Instrument (Is integration time). The data was analyzed by GraphPad Prism and the dose dependent STAT6 degradation was fit using the four-parameter inhibitor vs. response nonlinear regression.
The letter codes for DC50 (nM) include: A (<1 nM): B (1-10 nM); C (>10-100 nM); D (>100-1000 nM); E (>1000 nM); and F (not tested). The letter codes for Dmax (%) include: A (>90%); B (>70-90%); C (>50-70%); D (<50%); and E (not tested).

[1] = biological target: T3, biotinylated truncated STAT6 (123-632)-avi (Homo sapiens, UniProt P42226); assay: STAT6 HTRF binding assay; details: HTRF binding, 0.15 nM biotinylated truncated STAT6 (123-632)-avi, 20 nM fluorescein-labeled probe
T3 construct: biotinylated truncated STAT6 (123-632)-avi purified from E. coli; made in house; host or cells: E. coli
T3 sequence (P42226 123-632 limits assumed): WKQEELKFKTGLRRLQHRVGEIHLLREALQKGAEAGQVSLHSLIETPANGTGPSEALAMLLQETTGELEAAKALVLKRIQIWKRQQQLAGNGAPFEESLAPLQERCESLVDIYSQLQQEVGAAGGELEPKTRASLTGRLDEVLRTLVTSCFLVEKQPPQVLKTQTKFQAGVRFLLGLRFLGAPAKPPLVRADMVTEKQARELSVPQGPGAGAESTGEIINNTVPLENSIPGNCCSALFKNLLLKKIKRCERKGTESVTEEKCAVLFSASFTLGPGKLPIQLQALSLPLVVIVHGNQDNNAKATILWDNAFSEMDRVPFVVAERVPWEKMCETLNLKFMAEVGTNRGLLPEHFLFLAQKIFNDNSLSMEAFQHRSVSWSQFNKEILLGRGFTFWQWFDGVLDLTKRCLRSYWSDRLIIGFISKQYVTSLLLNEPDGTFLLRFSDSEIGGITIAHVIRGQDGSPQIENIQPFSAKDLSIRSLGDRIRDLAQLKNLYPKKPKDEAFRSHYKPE
Method: HTRF binding assays were performed using 0.15 nM biotinylated truncated STAT6 (123-632)-avi purified from E. coli, 1× Streptavidin-terbium (CisBio) prepared by mixing SA-Tb in PPI detection buffer (CisBio), 20 nM proprietary fluorescein-labeled probe, and test compounds in assay buffer consisting of 50 mM HEPES-Na pH 7.5, 100 mM NaCl, 1 mM EDTA, 2 mM DTT, 0.1% Tween-20 with a final volume of 20 uL. Compound stocks were dissolved at 10 mM in 100% DMSO and 11 point titration with 3 fold serial dilution was performed in white, opaque 384 well microplates. Reaction plates were incubated at room temperature for 30 minutes. Plates were centrifuged at low rpm for 5 mins, and the ratio of fluorescence intensities were measured at emission wavelengths for fluorescein acceptor (520 nm) and terbium donor (495 nm) on Envision Plate reader. % Inhibition was calculated from the 520/495 ratio generated by using proprietary positive control compound for 100% inhibition and DMSO only reactions for 0% inhibition. Data was processed and dose response curves were generated using GraphPad Prism to determine the concentration required for inhibiting 50% of the HTRF signal (IC50).
The letter codes for IC50 (μM) include: A (<0.1 μM); B (0.1-1 μM); C (>1-10 μM); D (>10-100 μM); E (>100 μM); and F (not tested).

SMILES: CN(C)C(=O)c1cc2c(-c3ccc(C4CCN(c5ccc(C6CCC(=O)NC6=O)cc5F)CC4)cc3)cc(C3=CCCN(C(=O)CCn4ccnn4)C3)c(F)c2[nH]1 (centres unmarked) [Example I-1015, 6-(1-(3-(1H-1,2,3-triazol-1-yl)propanoyl)-1,2,5,6-tetrahydropyridin-3-yl)-4-(4-(1-(4-(2,6-dioxopiperidin-3-yl)-2-fluorophenyl)piperidin-4-yl)phenyl)-7-fluoro-N,N-dimethyl-1H-indole-2-carboxamide]
- DC50 (STAT6): < 1 nM
- Dmax (STAT6): 70 to 90%
- DC50 (STAT6-HiBiT): < 1 nM
- Dmax (STAT6-HiBiT): > 90%
- IC50 [1]: < 100 nM
